Measured values as given in US20230174523A1, “BENZENESULFONAMIDE DERIVATIVES AS TRAP1 MODULATORS AND USES THEREOF” (Amathus Therapeutics, Inc., priority 2020, published 2023).

How the values were obtained:
[1] = system: primary rat dopaminergic neurons; experiment: ROS production in primary dopaminergic TH-positive neurons injured with 6-OHDA; assay type: cell-based; conditions: injury with 6-OHDA (20 μM, 4 h); FIG. 5
Protocol: (§1) Rat dopaminergic neurons were cultured as described by Visanji et al., 2008. Briefly, pregnant female rat of 15 days of gestation are sacrificed using a deep anesthesia with CO2 chamber and a cervical dislocation. The midbrains obtained from 15-day-old rat embryos are dissected under a microscope. The embryonic midbrains are removed and placed in ice-cold medium of Leibovitz (L15) containing 2% of Penicillin-Streptomycin (PS) and 1% of bovine serum albumin (BSA). The ventral portion of the mesencephalic flexure, a region of the developing brain rich in dopaminergic neurons, is used for the cell preparations.
The midbrains are dissociated by trypsinisation for 20 min at 37° C. (solution at a final concentration of 0.05% trypsin and 0.02% EDTA). The reaction is stopped by the addition of Dulbecco's modified Eagle's medium (DMEM) containing DNAase I grade II (0.5 mg/mL) and 10% of foetal calf serum (FCS). Cells are then mechanically dissociated by 3 passages through a 10 mL pipette. Cells are then centrifuged at 180×g for 10 min at +4° C. on a layer of BSA (3.5%) in L15 medium. […] Viable cells are counted in a Neubauer cytometer using the trypan blue exclusion test. […] Six wells per condition are assessed. […]

[2] = system: primary rat TH+ dopaminergic neurons; experiment: ROS production in primary TH+ dopaminergic neurons injured with MPP+; assay type: cell-based; conditions: injury with MPP+ (4 μM, 4 h); FIG. 6
Protocol: as §1
The midbrains are dissociated by trypsinisation for 20 min at 37° C. (solution at a final concentration of 0.05% trypsin and 0.02% EDTA). […] Viable cells are counted in a Neubauer cytometer using the trypan blue exclusion test. […] Six wells per condition are assessed. […]
For each condition, 20 pictures at 10× magnification (plate 1) or 30 pictures at 20× magnification (representing the whole well area) were automatically taken using ImageXpress®. […] The following read-outs were measured: Analysis of total number of TH neurons (TH positive neuron number), Analysis of the ROS into TH positive neurons, Analysis of caspase 3 positive TH neurons, and Analysis of total neurite network of TH positive neurons (in μm).
All values are expressed as mean+/−SEM (standard error of the mean). […]

In the case of Cc1nn(C)c2sc(C(=O)Nc3ccc(F)c(S(=O)(=O)Nc4ccc(Cl)cc4)c3)cc12 [Compound 705], the “reactive oxygen species (ROS) production” value [1] is reported as “reduction in ROS” and the “reactive oxygen species (ROS) production” value [2] is reported as “reduction of ROS”.
